Consider one compound from ChEMBL document CHEMBL1123770, “Systematic synthesis and biological evaluation of alpha- and beta-D-lyxofuranosyl nucleosides of the five naturally occurring nucleic acid bases” (1987).

Converted amounts (≈) assume the structure as drawn.

For assay [1], the species on record is Oryctolagus cuniculus. In words: Minimum inhibitory concentration (MIC) required to reduce virus-induced cytopathogenicity by 50% against Vaccinia virus in primary rabbit kidney cells. The assay is classed as functional. As to conditions: Oryctolagus cuniculus; read-out: MIC.
Assay [2] relates to Vero. As to the kind of experiment: Minimum inhibitory concentration (MIC) required to reduce virus-induced cytopathogenicity by 50% against forest virus in African green monkey kidney (Vero B)cells. As to conditions: Chlorocebus sabaeus. The assay is classed as functional.
Assay [3] has as its system WI-38. In words: Minimum inhibitory concentration (MIC) required to reduce virus-induced cytopathogenicity by 50% against Rhinovirus-1A in human diploid (WI-38)cells. The assay is classed as functional.
Assay [4] relates to WI-38. As to the kind of experiment: Minimum cytotoxic concentration (MCC) required to cause a microscopically detectable alteration of host cell morphology, when incubated with WI-38 cells. The assay is classed as functional. Conditions: Homo sapiens.
The test system of assay [5] is HeLa. As to the kind of experiment: Minimum inhibitory concentration (MIC) required to reduce virus-induced cytopathogenicity by 50% against Coxsackie virus B4 in HeLa cells. The assay is classed as functional. As to conditions: Homo sapiens.
The test system of another assay is Human respirovirus 3. As to the kind of experiment: Minimum inhibitory concentration (MIC) required to reduce virus-induced cytopathogenicity by 50% against Parainfluenza virus-3 in African green monkey kidney (Vero B)cells. The assay is classed as functional.
Assay [6] in a line: Minimum cytotoxic concentration (MCC) required to cause a microscopically detectable alteration of host cell morphology, when incubated with PRK cells. Conditions: Oryctolagus cuniculus. The assay is classed as functional.
The species named for assay [7] is Oryctolagus cuniculus. As to the kind of experiment: Minimum inhibitory concentration (MIC) required to reduce virus-induced cytopathogenicity by 50% against G strain of Herpes simplex virus-2 in primary rabbit kidney cells. The assay is classed as functional. As to conditions: Oryctolagus cuniculus; read-out: MIC.
Assay [8] deals with WI-38. In words: Minimum inhibitory concentration (MIC) required to reduce virus-induced cytopathogenicity by 50% against Rhinovirus 9 in human diploid (WI-38)cells. The assay is classed as functional. Conditions: Homo sapiens; read-out: MIC.
Assay [9] deals with Vero. As to the kind of experiment: Minimum inhibitory concentration (MIC) required to reduce virus-induced cytopathogenicity by 50% against Sindbis virus in African green monkey kidney (Vero B)cells. The assay is classed as functional. Conditions: Chlorocebus sabaeus.
The test system of assay [10] is HeLa. As to the kind of experiment: Minimum inhibitory concentration (MIC) required to reduce virus-induced cytopathogenicity by 50% against Vesicular stomatitis virus in HeLa cells. The assay is classed as functional. As to conditions: Homo sapiens.
The subject of assay [11] is Vero. In words: Minimum cytotoxic concentration (MCC) required to cause a microscopically detectable alteration of host cell morphology, when incubated with Vero B cells. The assay is classed as functional. As to conditions: Chlorocebus sabaeus.
In assay [12] the test system is Vero. As to the kind of experiment: Minimum inhibitory concentration (MIC) required to reduce virus-induced cytopathogenicity by 50% against Reo virus-1 in African green monkey kidney (Vero B)cells. The assay is classed as functional, Chlorocebus sabaeus. As to conditions: Chlorocebus sabaeus; read-out: MIC.
The species entered for assay [13] is Oryctolagus cuniculus. As to the kind of experiment: Minimum inhibitory concentration (MIC) required to reduce virus-induced cytopathogenicity by 50% against KOS strain of Herpes simplex virus-1 in primary rabbit kidney cells. The assay is classed as functional.
The species named for assay [14] is Oryctolagus cuniculus. In words: Minimum inhibitory concentration (MIC) required to reduce virus-induced cytopathogenicity by 50% against Vesicular stomatitis virus in primary rabbit kidney cells. The assay is classed as functional.
In assay [15] the test system is HeLa. In words: Minimum cytotoxic concentration (MCC) required to cause a microscopically detectable alteration of host cell morphology, when incubated with HeLa cells. The assay is classed as functional. Conditions: Homo sapiens.
The subject of assay [16] is Vero. As to the kind of experiment: Minimum inhibitory concentration (MIC) required to reduce virus-induced cytopathogenicity by 50% against Coxsackie virus B4 in African green monkey kidney (Vero B)cells. Conditions: Chlorocebus sabaeus; read-out: MIC. The assay is classed as functional, Chlorocebus sabaeus.

As for `Nc1nccc2c1ncn2[C@@H]1C[C@H](CO)[C@@H](O)[C@H]1O` [3-DEAZAARISTEROMYCIN A], the MIC in the assay filed under Oryctolagus cuniculus [1] is 0.7 µg/mL (≈ 2.65 µM); against Vero [2] it was greater than 200 µg/mL; in the assay on WI-38 [3], greater than 400 µg/mL; against HeLa [5] it was greater than 400 µg/mL; in the assay with Human respirovirus 3 it was 0.7 µg/mL (≈ 2.65 µM); in the assay filed under Oryctolagus cuniculus [7], 150 µg/mL (≈ 568 µM). Also, the MIC was greater than 400 µg/mL with WI-38 [8]; 70 µg/mL (≈ 265 µM) in the assay with Vero [9]; 0.7 µg/mL (≈ 2.65 µM) against HeLa [10]; 1 µg/mL (≈ 3.78 µM) in the assay on Vero [12]; greater than 400 µg/mL in the assay listed under Oryctolagus cuniculus [13]; 0.2 µg/mL (≈ 0.757 µM) in the assay filed under Oryctolagus cuniculus [14]. Further, the MIC in the assay on Vero [16] was 0.04 µg/mL (≈ 0.151 µM). Moreover, the MCC (in the assay on WI-38 [4]; in assay [6]; with Vero [11]; with HeLa [15]) was greater than 400 µg/mL each time.
